PubChem BioAssay AID330 (DTP/NCI, 2004)
Several values for one entry are separate records, joined by “and”; a condition that tells them apart may be missing. Equal values may be shown once. Inconclusive results and toxic doses are left out. How the source made its calls: active means survival T/C of 150% or more; inactive means T/C below 125% in these data. Peptide text beside a SMILES is read from it. * marks the point of attachment. Boc = CC(C)(C)OC(=O)*; NHNH2 = NN*

Tested on: P388 leukemia ip, CD2F1 mice, survival T/C
Assay: NCI In Vivo Anticancer Drug Screen. Data for tumor model P388 Leukemia (intraperitoneal) in CD2F1 (CDF1) mice
Conditions: endpoint: median survival time, higher = longer survival
Method in brief: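 Mice carrying the transplanted tumor received test compound or vehicle. Survival was recorded in each group, and the value is the treated-group measurement divided by that of the vehicle-treated control group.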

[1] = dose: 12.5 mg/kg/injection, schedule: Q01DX009 (ip), vehicle: other
[2] = dose: 25.0 mg/kg/injection, schedule: Q01DX009 (ip), vehicle: other
[3] = dose: 50.0 mg/kg/injection, schedule: Q01DX009 (ip), vehicle: other
[4] = dose: 100.0 mg/kg/injection, schedule: Q01DX009 (ip), vehicle: other
[5] = dose: 200.0 mg/kg/injection, schedule: Q01DX009 (ip), vehicle: other
[6] = dose: 50.0 mg/kg/injection, schedule: Q01DX005 (ip), vehicle: saline with Tween-80
[7] = dose: 50.0 mg/kg/injection, schedule: Q01DX009 (ip), vehicle: saline with Tween-80
[8] = dose: 200.0 mg/kg/injection, schedule: Q01DX009 (ip), vehicle: saline with Tween-80
[9] = dose: 100.0 mg/kg/injection, schedule: Q01DX001 (ip), vehicle: saline
[10] = dose: 200.0 mg/kg/injection, schedule: Q01DX001 (ip), vehicle: saline
[11] = dose: 400.0 mg/kg/injection, schedule: Q01DX001 (ip), vehicle: saline

Measured: T/C

CCC(C)C(NC(=O)C(Cc1c[nH]c2ccccc12)NC(=O)OC(C)(C)C)C(=O)NN (stereo not drawn) (Boc-Trp-Ile-NHNH2; configuration not given here)
inactive: [1] 97 % of control | [2] 91 % of control | [3] 87 % of control | [4] 94 % of control | [5] 100 % of control

FC(F)(F)C(F)(F)C(F)(F)C(F)(F)C(F)(F)C(F)(F)C[CH2][Sn]([Cl])([Cl])[CH2]CC(F)(F)C(F)(F)C(F)(F)C(F)(F)C(F)(F)C(F)(F)F
inactive: dose: 60.0 mg/kg/injection, schedule: Q01DX005 (ip), vehicle: saline with Tween-80 118 % of control | dose: 120.0 mg/kg/injection, schedule: Q01DX005 (ip), vehicle: saline with Tween-80 119 % of control

CCCCOc1ccc(Nc2c(C(=O)O)cnc3cc4c(cc23)OCO4)cc1
inactive: dose: 60.0 mg/kg/injection, schedule: Q01DX005 (ip), vehicle: Klucel (hydroxypropylcellulose) (HPC) 100 % of control | dose: 120.0 mg/kg/injection, schedule: Q01DX005 (ip), vehicle: Klucel (hydroxypropylcellulose) (HPC) 91 % of control | dose: 240.0 mg/kg/injection, schedule: Q01DX005 (ip), vehicle: Klucel (hydroxypropylcellulose) (HPC) 97 % of control

CCC1SCC(=O)N1c1nncs1 (stereo unspecified)
inactive: dose: 25.0 mg/kg/injection, schedule: Q01DX005 (ip), vehicle: saline with Tween-80 104 % of control | [6] 101 % of control and 102 % of control | dose: 100.0 mg/kg/injection, schedule: Q01DX005 (ip), vehicle: saline with Tween-80 102 % of control and 97 % of control | dose: 200.0 mg/kg/injection, schedule: Q01DX005 (ip), vehicle: saline with Tween-80 101 % of control

CC(C)C12CC(COCc3ccccc3)OC1=NC(=O)NC2=O (stereo unspecified)
inactive: dose: 50.0 mg/kg/injection, schedule: Q01DX009 (ip), vehicle: Klucel (hydroxypropylcellulose) (HPC) 112 % of control | dose: 100.0 mg/kg/injection, schedule: Q01DX009 (ip), vehicle: Klucel (hydroxypropylcellulose) (HPC) 103 % of control | dose: 200.0 mg/kg/injection, schedule: Q01DX009 (ip), vehicle: Klucel (hydroxypropylcellulose) (HPC) 94 % of control

CC(=O)N(C)c1ccc(Nc2cc(S(=O)(=O)O)c(N)c3c2C(=O)c2ccccc2C3=O)cc1
inactive: dose: 60.0 mg/kg/injection, schedule: Q01DX005 (ip), vehicle: saline 98 % of control | dose: 120.0 mg/kg/injection, schedule: Q01DX005 (ip), vehicle: saline 100 % of control | dose: 240.0 mg/kg/injection, schedule: Q01DX005 (ip), vehicle: saline 90 % of control

CCC(=O)Oc1ccc(C2N(Cc3ccc(N(C)C)cc3)CCCN2Cc2ccc(N(C)C)cc2)cc1
inactive: [7] 90 % of control | [8] 90 % of control

NC(Cc1ccc(O)c(N=Nc2ccc([N+](=O)[O-])cc2)c1)C(=O)O (stereo unspecified)
inactive: [9] 103 % of control | [10] 100 % of control | [11] 100 % of control

CNc1ccc2c(c1)C(=O)c1c(C)n(C)c3cccc-2c13
inactive: [6] 98 % of control

CCCCCn1c(C)cc(/C=C\c2ccc3cc(C)ccc3[n+]2C)c1C
inactive: dose: 0.5 mg/kg/injection, schedule: Q04DX003 (ip), vehicle: saline 118 % of control | dose: 1.0 mg/kg/injection, schedule: Q04DX003 (ip), vehicle: saline 109 % of control | dose: 2.0 mg/kg/injection, schedule: Q04DX003 (ip), vehicle: saline 109 % of control

CCN(CC)C(=O)C1(C)NS(=O)(=O)c2ccccc2C1=O (stereo unspecified)
inactive: dose: 25.0 mg/kg/injection, schedule: Q01DX009 (ip), vehicle: saline with Tween-80 106 % of control | [7] 98 % of control and 110 % of control and 96 % of control | dose: 100.0 mg/kg/injection, schedule: Q01DX009 (ip), vehicle: saline with Tween-80 98 % of control and 110 % of control and 97 % of control | [8] 95 % of control

COC(=O)C1C(C)(C)N=NC1(C)C
inactive: [1] 113 % of control | [2] 115 % of control | [3] 105 % of control | [4] 103 % of control | [5] 108 % of control

CC(=O)Oc1c(I)cc(Cc2nc(C)oc2C)cc1I
inactive: [9] 99 % of control | [10] 102 % of control | [11] 102 % of control

N#CC1(C#N)C(C#N)(C#N)C12CCCCCC2
inactive: dose: 12.5 mg/kg/injection, schedule: Q04DX003 (ip), vehicle: Klucel (hydroxypropylcellulose) (HPC) 106 % of control | dose: 25.0 mg/kg/injection, schedule: Q04DX003 (ip), vehicle: Klucel (hydroxypropylcellulose) (HPC) 112 % of control | dose: 50.0 mg/kg/injection, schedule: Q04DX003 (ip), vehicle: Klucel (hydroxypropylcellulose) (HPC) 95 % of control

CC(=O)NC1=C(O)C2C(c3ccccc3)C(C#N)C(=O)N2C1=O (stereo unspecified)
inactive: dose: 100.0 mg/kg/injection, schedule: Q04DX002 (ip), vehicle: saline with Tween-80 100 % of control | dose: 200.0 mg/kg/injection, schedule: Q04DX002 (ip), vehicle: saline with Tween-80 100 % of control | dose: 400.0 mg/kg/injection, schedule: Q04DX002 (ip), vehicle: saline with Tween-80 95 % of control

CC1CN(CCC#N)CC(C)O1 (stereo unspecified)
inactive: dose: 25.0 mg/kg/injection, schedule: Q01DX009 (ip), vehicle: saline 101 % of control | dose: 50.0 mg/kg/injection, schedule: Q01DX009 (ip), vehicle: saline 101 % of control | dose: 100.0 mg/kg/injection, schedule: Q01DX009 (ip), vehicle: saline 101 % of control | dose: 200.0 mg/kg/injection, schedule: Q01DX009 (ip), vehicle: saline 104 % of control
